The values below come from patent US20130190345A1, “MATRINIC ACID/MATRINE DERIVATIVES AND PREPARATION METHODS AND USES THEREOF” (priority 2010, published 2013).

Data set [1] concerns Hsc70. As to the kind of experiment: Detection of Hsc70 gene expression level upon action of compound on 2.2.15 cells (real-time fluorescent quantified PCR). Format: cell-based. The following applies: 2.2.15 cells; relative to OMT (= 1). An outline of the steps:
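2.2.15 cells grown 24 hr in 10% FCS medium, then exposed to compounds (20 mg/ml MEM stock diluted in medium) for 12, 24 or 36 hr; 400 μg/ml OMTR as control. Hsc70 mRNA and HBV DNA changes measured by real-time fluorescent quantitative PCR.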

Data set [2] has as its system Hsc70. Kind of data set: Inhibition effects of compound on Hsc70 in Huh7.5 cultured cell (qRT-PCR, Western blotting). Format: cell-based. Set-up: key to Hsc70 down-regulation rate (%): “—” represents no significant inhibition rate.
The subject of a further data set is HCV. As to the kind of experiment: Inhibition effects of compounds on HCV in Huh7.5 cultured cell after HCV infection. The data set is classed as cell-based. An outline of the steps: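 Huh7.5 cells, cultured 24 h, were infected with HCV at 45 IU/cell and given drug in medium for 72 h at 37° C. Intracellular HCV and GAPDH RNA quantified by one-step qRT-PCR, with inhibition analysed against virus control; three repeats.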

Another data set has as its system 2.2.15 cells. As to the kind of experiment: Drug TC50 by MTT detection. The data set is classed as cell-based. The following applies: Reed-Muench.
Another data set has as its system DHBV. As to the kind of experiment: DHBV animal test. Format: in vivo, Peking ducks. The procedure:
Infection and administration: Peking ducks (purchased from Institute of Animals, Chinese Academy of Medical Sciences) were infected via foot vein with 0.2 ml DHBV positive serum. […] The control group was administered with physiological saline (1 ml); positive control was administered with 3TC (lamivudine), in dose of 50 mg/kg (5 mg/ml, 1 ml).

The subject of data set [3] is Hsc70. As to the kind of experiment: Hsc70 protein in virus particles in supernatant from HCV-infected Huh7.5 cultured cell liquid. The data set is classed as cell-based. The following applies: HCV-infected Huh7.5 cells, 96 h, Western blotting (FIG. 8). The procedure:
Huh7.5 cells were inoculated in an amount of 3×10^4/cm^2, cultured in 10 cm culture dish (58.1 cm^2/well) for 6 h, infected with HCV and simultaneously added with DM-122 drug solutions with different concentration and positive control Intron A, after action for 96 h, the supernatant from cultured cell liquid was subjected to ultra-high speed centrifugation to separate virus particles, Western blotting was used to analyze the contents of Hsc70 and GAPDH proteins in virus particles.
Background: Immunoblotting shows a protein as a band on a membrane.

The nature of data set [4]: Acute toxicity of compound in mice. Format: in vivo. The following applies: mouse, in vivo. As for the experimental part: Kunming mice (purchased from Institute of Animal, Chinese Academy of Medical Sciences), 18-20 g, were weighed and randomly divided in groups, 10 mice per group, half male and half female, intraperitoneally injected with DM122 solution, in concentration of 0, 250 mg/kg, 500 mg/kg and 1000 mg/kg once. The death of animals was observed. On the 7th day, the animals were weighed, blood samples were taken and functional indexes (GOT, GPT, BUN and CRE) of liver and kidney in blood were determined.
Since Compound 6b had relatively high activity on anti-HBV and anti-HCV. The inventors had used it as a candidate of anti-hepatitis drug to evaluate its safety in animal body. Kunming mice were used for test of safety and acute toxicity of Compound 6b (13-methoxy matrine), via oral administration, administration doses were separately 250, 500 and 750 mg/kg once, then the mice were strictly monitored for 7 days.

Molecules are shown by their SMILES. In brackets after ≈: the same amount, converted by molar mass.

As to `COc1ccc(CN2CC3CCCN4CCCC(C2CCCC(=O)O)C34)cc1` (stereo not shown) [DM-122, N-(4-methoxybenzyl) matrinic acid], the “Hsc70 inhibition rate (down-regulation of Hsc70 expression activity, expressed in relative OMT ratio)” value with Hsc70 [1] is reported as 1.56. Moreover, the “Hsc70 down-regulation rate (%)” value in the data set with Hsc70 [2] (200 ug/ml (upper data)) is listed as 36.8 ± 1.4%; in the data set on Hsc70 [2] (400 ug/ml (lower data)), “—”. Further, the “inhibition of intracellular Hsc70 mRNA” value with Hsc70 [2] (Huh7.5 cells, 24 h, qRT-PCR (FIG. 4)) is given as “dose-dependent inhibition effects”. Besides, the “inhibition of intracellular Hsc70 protein” value with Hsc70 [2] (Huh7.5 cells, 48 h, Western blotting (FIG. 5)) was “dose-dependent inhibition effects”. Further, the “HCV inhibition rate (%)” value amounted to 77.2 ± 4.8% in the data set with HCV (200 ug/ml (upper data)) and 88.0 ± 4.0% in the data set with HCV (400 ug/ml (lower data)). Further, the “inhibition of intracellular HCV Core and Hsc70 proteins” value in the data set with HCV (HCV-infected Huh7.5 cells, 72 h, Western blotting (FIG. 7A)) is recorded as “dose-dependent inhibition effects”. Further, in the data set on HCV (HCV-infected Huh7.5 cells, 72 h, qRT-PCR (FIG. 6)), the “effect on intracellular HCV RNA” value is “dose-dependent effects”. In addition, in the data set on HCV (virus not given, stands beside HCV inhibition rate), the “EC50 (half effective concentration)” value was found to be 252.35 µg/mL (≈ 653 µM). The “CC50 (concentration to cause poisoning in half cells)” value in the data set on 2.2.15 cells is above 1000 µg/mL. Moreover, the “HBVDNA in liver, inhibition rate” value in the data set on DHBV (duckling, oral 37.5 mg/kg twice per day, 15 days (FIG. 1)) is listed as −5.14%. Besides, in the data set with DHBV (oral 150, 75, 37.5 mg/kg twice per day, 15 days), the “activity against hepatitis B virus in DHBV-infected ducks (HBV DNA in liver and serum)” value is “good activity against hepatitis B virus”. Moreover, the “Hsc70 protein content in virus particles in supernatant” value with Hsc70 [3] is recorded as “reduced the Hsc70 protein content in virus particles”. In addition, the “influence on body weight of mice” value in data set [4] is recorded as “no influence on body weight of mice”. For the same molecule, in data set [4] (ip), the “influence on liver and kidney functions (GOT, GPT, BUN, CRE)” value was “no influence on liver and kidney functions”.
